“Also recorded” adds a separate entry of the source. Strand notation (5' to 3'): a small letter for the sugar, then the base; units joined by * are phosphorothioate-linked, units joined directly phosphodiester-linked; [ ] holds rarer units or linkages, { } end groups; capitals alone tell only the bases. l = locked nucleic acid (LNA); [5mC] = 5-methylcytosine; d = 2'-deoxy (DNA)
Assays:
[1] = system: miR-122a; experiment: Plasma cholesterol in LNA anti-miR122 treated mice; format: in vivo, mouse; conditions: Day 6; i.p. on day 0, 2 and 4
Method: In vivo study: Ten groups of animals (female C57/BL6; 3 mice per group) were treated in the following manner. Group 1 animals were injected with 0.2 ml saline by i.p. on day 0, day 2 and day 4. Groups 2-10 were dosed by i.p. with three different conc. (25 mg/kg, 5 mg/kg and 1 mg/kg) of either LNA antimiR-122a/SEQ ID NO: 61 (group 2-4), LNA antimir-122a/SEQ ID NO: 66 (group 5-7) or LNA antimir-122a/SEQ ID NO: 63 (group 8-10); the LNA antimir-122a sequences are given in the Table 1. All three LNA antimiR-122a oligonucleotides target the liver-specific miR-122a. The doses were calculated from the Day 0 body weights of each animal.
The animals were sacrificed 48 hours after last dose (Day 6), retro-orbital blood was collected in tubes containing EDTA and the plasma fraction harvested and stored frozen −80° C. for cholesterol analysis. At sacrifice livers were dissected and one portion was cut into 5 mm cubes and immersed in 5 volumes of ice-cold RNAlater. […]
Total cholesterol level was measured in plasma using a colometric assay Cholesterol CP from ABX Pentra. Cholesterol was measured following enzymatic hydrolysis and oxidation (2,3). […] 250 μl reagent was added and within 5 min the cholesterol content measured at a wavelength of 540 nm. […] The cholesterol level was determined by subtraction of the background and presented relative to the cholesterol levels in plasma of saline treated mice.

[2] = system: miR-122a target genes (Bckdk, aldolase A, Nrdg3, CD320, Vldlr); experiment: miR-122a target mRNA levels in mouse liver by qPCR; format: in vivo; conditions: for Bckdk and AldoA mRNA levels compared to SEQ ID NO: 61 treated mice (in words) / upregulation of miR-122a target genes Bckdk and AldoA (in words): liver, 48 hours after last dose (Day 6)
Method: The saline control and different LNA-antimiR-122a treated animals were sacrificed 48 hours after last dose (Day 6), and total RNA was extracted from liver samples as using Trizol reagent according to the manufacturer's recommendations (Invitrogen, USA). The mRNA levels were assessed by real-time quantitative RT-PCR for two miR-122a target genes, Bckdk (branched chain ketoacid dehydrogenase kinase, ENSMUSG00000030802) and aldolase A (aldoA, ENSMUSG00000030695), respectively, as well as for GAPDH as control, using Taqman assays according to the manufacturer's instructions (Applied biosystems, USA).
NMRI mice were administered intravenously with SEQ ID NO: 61 SEQ ID NO: 61 using daily doses ranging from 2.5 to 25 mg/kg for three consecutive days. Animals were sacrificed 24 hours, 1, 2 or 3 weeks after last dose. Livers were harvested divided into pieces and submerged in RNAlater (Ambion) or snap-frozen. RNA was extracted with Trizol reagent according to the manufacturer's instructions (Invitrogen) from the RNAlater tissue, except that the precipitated RNA was washed in 80% ethanol and not vortexed. The RNA was used for mRNA TaqMan qPCR according to manufacturer (Applied biosystems) or northern blot (see below). The snap-frozen pieces were cryo-sectioned for in situ hybridizations.
Mice were treated with different SEQ ID NO: 61 SEQ ID NO: 61 doses for three consecutive days, as described above and sacrificed 24 hours after last dose. Total RNA extracted from liver was subjected to qPCR. […] Total liver RNA from 2 to 3 mice per group sacrificed 24 hours after last dose were subjected to qPCR for the indicated genes. Shown in FIG. 9 is mRNA levels relative to Saline group, n=2-3 (2.5-12.5 mg/kg/day: n=2, no SD). Shown is also the mismatch control (m, SEQ ID NO: 65).
Assayed genes: Nrdg3 Aldo A, Bckdk, CD320 with predicted miR-122 target site.
NMRI female mice were treated with 25 mg/kg/day SEQ ID NO: 61SEQ ID NO: 61 along with saline control for three consecutive days and sacrificed 1, 2 or 3 weeks after last dose, respectively. RNA was extracted from livers and mRNA levels of predicted miR-122a target mRNAs, selected by microarray data were investigated by qPCR. Three animals from each group were analysed.
mRNA levels are normalized to the individual GAPDH levels and to the mean of the Saline treated group at each individual time point. Included are also the values from the animals sacrificed 24 hours after last dose. Shown is mean and standard deviation, n=3 (24 h n=3)
The same liver RNA samples as in previous example were investigated for Vldlr induction.
NMRI female mice were treated with indicated doses of LNA-antimiR (SEQ ID NO: 61) along with a mismatch control (m, SEQ ID NO: 65), saline and antagomir (SPC3595) for three consecutive days and sacrificed 24 hours after last dose (as in example 11 “old design”, n=5). miR-122 levels were analyzed by qPCR and normalized to the saline treated group.
mRNA quantification of selected genes was done using standard Tag Man assays (Applied Biosystems). The reverse transcription reaction was carried out with random decamers, 0.5 μg total RNA, and the M-MLV RT enzyme from Ambion according to a standard protocol. First strand cDNA was subsequently diluted 10 times in nuclease-free water before addition to the RT-PCR reaction mixture. A two-fold cDNA dilution series from liver total RNA of a saline-treated animal or mock transfected cells cDNA reaction (using 2.5 times more total RNA than in samples) served as standard to ensure a linear range (Ct versus relative copy number) of the amplification. Applied Biosystems 7500 or 7900 real-time PCR instrument was used for amplification.

[3] = system: 122R, DNA; experiment: Melting temperature (Tm) of oligo against DNA complement; format: physicochemical
Method: The LNA anti-miR/miR-122a oligo duplex was diluted to 3 μM in 500 μl RNase free H2O, which was then mixed with 500 μl 2× dimerization buffer (final oligo/duplex conc. 1.5 μM, 2× Tm buffer: 200 mM NaCl, 0.2 mM EDTA, 20 mM NaP, pH 7.0, DEPC treated to remove RNases). The mix was first heated to 95 degrees for 3 minutes, then allowed to cool at room temperature (RT) for 30 minutes.
Following RT incubation Tm was measured on Lambda 40 UV/VIS Spectrophotometer with peltier temperature progammer PTP6 using PE Templab software (Perkin Elmer). The temperature was ramped up from 20° C. to 95° C. and then down again to 20° C., continuously recording absorption at 260 nm. First derivative and local maximums of both the melting and annealing was used to assess melting/annealing point (Tm), both should give similar/same Tm values. For the first derivative 91 points was used to calculate the slope.
However, in one embodiment the Tm may be made with a complementary DNA ([…]) molecule. Typically the Tm measured against a DNA complementary molecule is about 10° C. lower than the Tm with an equivalent RNA complement. The Tm measured using the DNA complement may therefore be used in cases where the duplex has a very high Tm.

Substance	plasma cholesterol compared to saline control (in words) [1]	Bckdk and AldoA mRNA levels compared to SEQ ID NO: 61 treated mice (in words) [2]	upregulation of miR-122a target genes Bckdk and AldoA (in words) [2]	Tm, oligo to DNA complement [3]	Vldlr induction in liver (in words) ([2]; 25 mg/kg/day for three consecutive days, 1, 2 or 3 weeks after last dose)	mRNA levels of predicted miR-122a target mRNAs over time (in words) ([2]; NMRI female mice, 25 mg/kg/day for three consecutive days, 1, 2 or 3 weeks after last dose)	de-repression of miR-122 target mRNAs (AldoA, Bckdk, CD320, Nrdg3) (in words) ([2]; NMRI female mice, three consecutive days, 24 hours after last dose, compared to antagomir treated mice, listed as LNA-antimiR)	induction of miR-122a target genes (Nrdg3, Aldo A, Bckdk, CD320) (in words) ([2]; different doses for three consecutive days, 24 hours after last dose)
5′-AttGTcaCaCtCC-3′ (antisense lA*dT*dT*lG*lT*dC*dA*l[5mC]*dA*l[5mC]*dT*l[5mC]*l[5mC]) [SEQ ID NO: 66]	markedly lowered level of plasma cholesterol	significantly higher	clear dose-dependent upregulation					
5′-CcAttGTcaCaCtCC-3′ (antisense CCATTGTCACACTCC; sugars from the 5' end ldlddllddldldll, backbone and methylation of C not given here) [SEQ ID NO: 63]	markedly lowered level of plasma cholesterol	significantly higher	clear dose-dependent upregulation	66 °C				
5′-ccAttGtcAcaCtcCa-3′ (antisense CCATTGTCACACTCCA; sugars from the 5' end ddlddlddlddlddld, backbone and methylation of C not given here) [SEQ ID NO: 61]			clear dose-dependent upregulation	57 °C	transient up-regulation	transient induction followed by a restoration of normal expression levels	dose-dependent de-repression; also recorded: consistently higher	clear dose-dependent induction
